2 molecules from publication PMC8279406 (Journal of Medicinal Chemistry, 2021) can be followed below.

Molecules are shown by their SMILES. Where only a bound is given, the exact number is not on record here.

One experiment deals with nectin1. Put plainly: Integrin internalization assay, surface nectin1 control by flow cytometry. The class given is cell-based. As to conditions: J cells with nectin1, αvβ6 and αvβ8, 700 μM, 1 h at 37 °C. The protocol:
Figure 5 Integrin internalization assay. J cells were transfected with a low amount (75 ng of DNA/24 well) of nectin1 plus αvβ6 integrin (300 ng of DNA/24 well) and αvβ8 integrin (300 ng of DNA/24 well). Then, 48 h after transfection, the cells were exposed to 700 μM peptides for 1 h at 37 °C. Cells derived from samples treated or not treated with peptides were incubated for 1 h at 4 °C with FAB4155A (mAbβ6), FAB4775A (mAbβ8), and R1.302 (mAbnectin1) mAbs. Samples incubated with R1.302 were washed and subsequently incubated for 1 h at 4 °C with the allophycocyanin (APC) mouse secondary antibody. Integrin and nectin1 surface expression levels were quantified as flow cytometry expression of the APC mean fluorescence intensity (MFI) of gated cells. Histograms represent the average of triplicates ± SD.
J cells were transfected with low amounts of plasmids encoding nectin1 (75 ng of DNA/24 well), plus plasmids encoding αv + β6 and αv + β8 integrins (300 ng of DNA/24 well) by means of Lipofect 2000 (Life Technologies). Then, 48 h after transfection, the cells were incubated with a single concentration of peptides (700 μM) for 1 h at 37 °C. At the end of the treatment with the peptides, half of the sample was used to visualize the expression of integrins β6 and β8 or of nectin1 used as a control in a flow cytometry assay. […]

The next experiment has as its target alphaVbeta5 (Homo sapiens, UniProt P06756+P18084). Put plainly: alphaVbeta5 binding affinities (supplementary CSV only). To be noted: unit inferred. An excerpt: Supplement jm1c00533_si_002.csv, table | column: alphaVbeta5 Binding affinities (IC50)
The test system of experiment [1] is recombinant K26GFP HSV-1 strain. Put plainly: Infection neutralization assay, transfected J cells, K26GFP HSV-1, EGFP expression. In kind it is cell-based. To be noted: for effect on HSV-1 infection (in words): J cells expressing nectin1 alone; for effect on virus entry (in words): J cells expressing nectin1 plus αvβ6 alone. The text has this: To this aim, we selected the J cells, which are negative for gD receptors and therefore cannot be infected by HSV-1 unless gD cognate receptors (i.e., nectin1) are transgenically expressed. […] In particular, J cells were transfected with low amounts of nectin1 plasmid, plus either αvβ6 or αvβ8 integrin plasmid or both, and then infected with the recombinant K26GFP HSV-1 strain. Indeed, the capsid protein ICP26 of this strain is fused to the green fluorescent protein (GFP),[60] whose cellular expression can be used to measure the viral infection. Thus, the K26GFP entry in J cells after compound treatment was evaluated using fluorescent microscopy (Figure 4A–T), and the enhanced green fluorescent protein (EGFP) expression was quantified using flow cytometry as the mean fluorescence intensity (MFI) of gated cells (Figure 4U). […] In parallel, we also evaluated the HSV infection in J cells expressing nectin1 plus either αvβ6 or αvβ8 alone.
J cells were transfected with a low amount (75 ng of DNA/24 well) of nectin1 alone (A–E), or with the same amount of nectin1 plus αvβ6 integrin (300 ng DNA/24 well) (F–J), or plus αvβ8 integrin (300 ng DNA/24 well) (K–O), or plus both the integrin receptors (P–T). […] The cells were infected with K26GFP. The nonpenetrated virus was inactivated by an acid wash. Infectivity was measured at 16 h after infection as EGFP expression. (A)–(T) panels show the EGFP expression in each sample for a typical experiment. (U) K26GFP infection was quantified as EGFP protein expression in the flow cytometry assay as the mean fluorescence intensity (MFI) of gated cells. Histograms represent the average of triplicates ± SD.
In other experiments, J cells were transfected with low amounts of plasmids encoding nectin1 (75 ng of DNA/24 well), plus or minus plasmids encoding αv + β6 or αv + β8 integrins (300 ng of DNA/24 well) or together by means of Lipofect 2000 (Life Technologies). The total amount of transfected plasmid DNA was made equal (675 ng/24 well) by the addition of Erb-2 plasmid DNA. […] Following infection, the unpenetrated virus was inactivated by means of an acid wash (40 mM citric acid, 10 mM KCl, 135 mM NaCl, pH 3),[87] and the cells were incubated for a further 16 h in the absence of the peptides or antibody. The extent of infection was assessed through EGFP expression.
Cytofluorimetric analyses were performed using an AccuriC6 flow cytometer (Becton Dickinson). A least 10 000 events were acquired for each sample. Microphotography of the inhibition experiment was conducted using a Nikon Eclipse Ni microscope.

The test system of experiment [2] is recombinant R8102 HSV-1 strain. Put plainly: Infection neutralization assay, 293T cells, R8102 HSV-1, β-galactosidase readout. The class given is cell-based. As to conditions: for effect on HSV-1 infection (in words): increasing concentrations, 1 h prior to infection and 90 min during attachment. An excerpt:
The binding of HSV-1 gH/gL to either αvβ6 or αvβ8 results in the dissociation of gL from the heterodimer, which, in turn, can favor HSV entry into cells.[27] […] R1.302, a nectin1-neutralizing mAb, was used as a positive control. In the first set of experiments, 293T cells, expressing both the αvβ6 and αvβ8 integrins, were alternatively exposed to increasing concentrations of the integrin-binding peptides and R1.302 before and during the infection by the recombinant R8102 HSV-1 strain. This virion carries, indeed, a lacZ reporter gene under the control of the α27 promoter, whose expression analysis allows for readily quantifying the infectivity.[59] […] Remarkably, these preliminary results were in agreement with the known interchangeable and additive roles played by αvβ6 and αvβ8 integrins upon HSV-1 infection.[26]
Figure 3 Inhibition of HSV-1 infection. 293T cells were exposed to increasing concentrations of the indicated peptides for 1 h prior to infection and during virus attachment for another 90 min. Infection was induced using the recombinant R8102 HSV-1 strain and measured after 8 h as β-galactosidase activity, using o-nitrophenyl-D-galactopyranoside (ONPG) as a substrate. The assays were run in triplicate. Bars show standard deviation (SD).
The experiments were performed using 293T cells in 96-well plates with extracellular virions of R8102 at an input multiplicity of infection of 5 PFU/cell. Cells were exposed to increasing concentrations of the peptides for 1 h at 37 °C, and the viral inoculum was added in the presence of peptides for 90 min at 37 °C. After the removal of the inoculum and rinsing with DMEM containing 1% FBS, the cells were incubated without peptides for 8 h. The same protocol was followed for R1.302 mAb that was used as a positive control. The infection was quantified as β-Gal activity using o-nitrophenyl-D-galactopyranoside (ONPG) as a substrate.[86]

The mark [3] stands for this setting: J cells expressing nectin1 plus both αvβ6 and αvβ8, 700 μM.
Where [4] appears, read: J cells expressing nectin1 plus αvβ8 alone, 700 μM.

Chain of alphaVbeta5 (P06756 31-1048): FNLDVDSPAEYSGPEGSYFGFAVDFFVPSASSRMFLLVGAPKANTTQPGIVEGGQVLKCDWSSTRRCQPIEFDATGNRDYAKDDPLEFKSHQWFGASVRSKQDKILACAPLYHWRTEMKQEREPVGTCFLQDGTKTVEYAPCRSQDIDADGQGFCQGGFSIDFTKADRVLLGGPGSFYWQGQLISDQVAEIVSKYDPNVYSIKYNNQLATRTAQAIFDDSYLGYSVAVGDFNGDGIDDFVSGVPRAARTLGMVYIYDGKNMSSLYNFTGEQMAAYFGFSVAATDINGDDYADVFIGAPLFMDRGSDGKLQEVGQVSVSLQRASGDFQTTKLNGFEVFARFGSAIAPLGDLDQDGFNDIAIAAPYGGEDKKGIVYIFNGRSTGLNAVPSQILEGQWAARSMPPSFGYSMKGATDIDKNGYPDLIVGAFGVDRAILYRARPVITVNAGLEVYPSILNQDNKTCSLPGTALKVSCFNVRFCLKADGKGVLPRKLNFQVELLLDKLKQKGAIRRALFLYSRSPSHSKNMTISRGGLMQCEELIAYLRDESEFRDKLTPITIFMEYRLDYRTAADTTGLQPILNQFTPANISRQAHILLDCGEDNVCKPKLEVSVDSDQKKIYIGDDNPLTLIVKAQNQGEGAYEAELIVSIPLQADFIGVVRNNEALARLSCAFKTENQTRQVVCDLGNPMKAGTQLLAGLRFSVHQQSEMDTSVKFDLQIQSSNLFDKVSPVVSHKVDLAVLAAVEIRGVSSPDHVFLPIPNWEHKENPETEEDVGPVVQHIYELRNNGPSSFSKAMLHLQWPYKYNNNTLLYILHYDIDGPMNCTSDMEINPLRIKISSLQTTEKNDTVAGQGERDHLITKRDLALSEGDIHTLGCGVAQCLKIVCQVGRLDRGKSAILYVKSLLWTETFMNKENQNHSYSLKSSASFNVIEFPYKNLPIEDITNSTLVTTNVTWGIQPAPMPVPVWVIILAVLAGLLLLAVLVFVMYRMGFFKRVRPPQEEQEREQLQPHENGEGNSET
Chain of alphaVbeta5 (P18084 24-799): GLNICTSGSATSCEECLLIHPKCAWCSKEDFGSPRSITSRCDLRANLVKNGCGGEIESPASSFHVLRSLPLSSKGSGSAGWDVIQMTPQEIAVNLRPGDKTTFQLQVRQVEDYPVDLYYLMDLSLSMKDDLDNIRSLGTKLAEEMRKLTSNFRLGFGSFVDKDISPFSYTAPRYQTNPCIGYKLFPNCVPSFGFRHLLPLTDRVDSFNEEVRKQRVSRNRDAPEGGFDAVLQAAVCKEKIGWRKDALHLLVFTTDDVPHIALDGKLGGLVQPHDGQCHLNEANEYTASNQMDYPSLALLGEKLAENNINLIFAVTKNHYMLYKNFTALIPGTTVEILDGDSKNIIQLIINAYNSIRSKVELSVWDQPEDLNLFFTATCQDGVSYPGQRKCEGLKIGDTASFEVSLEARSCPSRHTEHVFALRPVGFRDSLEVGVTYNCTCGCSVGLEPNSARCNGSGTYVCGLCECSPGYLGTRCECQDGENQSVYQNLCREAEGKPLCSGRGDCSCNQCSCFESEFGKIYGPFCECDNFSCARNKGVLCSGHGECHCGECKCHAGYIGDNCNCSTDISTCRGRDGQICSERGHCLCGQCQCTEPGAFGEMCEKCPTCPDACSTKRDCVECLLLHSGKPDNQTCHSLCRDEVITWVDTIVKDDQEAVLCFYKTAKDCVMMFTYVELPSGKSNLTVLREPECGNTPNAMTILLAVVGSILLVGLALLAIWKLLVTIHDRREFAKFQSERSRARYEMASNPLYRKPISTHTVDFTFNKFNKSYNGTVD

As for `N=C(N)NCCC[C@@H]1NC(=O)CC[C@@H](C(N)=O)NC(=O)[C@H](C2CCCCC2)NC(=O)[C@H](CC(=O)O)NC(=O)CNC1=O` [compound 1, [Arg-Gly-Asp-Chg-Glu]-CONH2], the “surface expression of nectin1 (in words)” value with nectin1 is given as “not altered”. The molecule further showed an IC50 at alphaVbeta5 greater than 5 µM. Further, the “effect on HSV-1 infection (in words)” value in experiment [1] (700 μM) is listed as “only treatment with R1.302 (B) was effective”; in experiment [2], “able to inhibit HSV-1 infection in a dose-dependent manner”. For the same molecule, the figures for the “effect on HSV infection (in words)” value in experiment [1] (setting [3]) and in experiment [1] (setting [4]) were “only partially impaired” and “inhibitory effects were detected only in the presence of 6”, respectively. The “effect on virus entry (in words)” value in experiment [1] (700 μM) was “the virus entry was affected”. In experiment [2] (700 μM), the “inhibition of HSV infection” value is on record as 40%. Moreover, the “maximum inhibition of HSV-1 infection” value in experiment [2] (at 1000 μM) was determined as 50%.
On to `CN1C(=O)[C@H](C2CCCCC2)NC(=O)[C@H](CC(=O)O)NC(=O)CNC(=O)[C@H](CCCNC(=N)N)NC(=O)CC[C@H]1C(N)=O` [compound 6, [Arg-Gly-Asp-Chg-(NMe)Glu]-CONH2], for which, in the experiment with nectin1, the “surface expression of nectin1 (in words)” value is listed as “not altered”. For the same molecule, the 50% inhibitory concentration (IC50) on alphaVbeta5 was greater than 5 µM. For the same molecule, the “effect on HSV-1 infection (in words)” value was “only treatment with R1.302 (B) was effective” in experiment [1] (700 μM) and “able to inhibit HSV-1 infection in a dose-dependent manner” in experiment [2]. For the same molecule, the “effect on HSV infection (in words)” value is recorded as “significantly reduced” in experiment [1] (setting [3]) and “inhibitory effects were detected only in the presence of 6” in experiment [1] (setting [4]). In experiment [1] (700 μM), the “effect on virus entry (in words)” value was “the virus entry was affected”.

As usually defined, the IC50 is the concentration at which inhibition is half-maximal. Lower therefore signals greater potency in that assay.
